This note sets out measurements from patent US20220000835A1, “METHOD FOR TREATING CANCER WITH A COMBINATION OF QUERCETIN AND A CHEMOTHERAPY AGENT” (Quercis Pharma A.G., priority 2014, published 2022).

Data set [1] concerns metastatic bladder cancer. As to the kind of experiment: Patient with tumor from metastatic bladder cancer, PET scan and patient report. It is filed as in vivo, human. The note with it: patient bearing a tumor from metastatic bladder cancer. On the procedure:
In a particular example, a patient bearing a tumor resulting from metastatic bladder cancer failed monotherapy with cisplatin. Subsequently, the patient was treated daily with 100 mg cyclophosphamide together with a composition containing 2 g of quercetin. […] Of note, this patient typically would not have been treated further after failing the monotherapy with cisplatin.

A short description of data set [2]: Stabilization of quercetin by vitamin B3 and/or vitamin C. It is filed as physicochemical. The following applies: in the presence of one or both of vitamin B3 and vitamin C.

Regarding `N.N.[Cl][Pt][Cl]` [cisplatin], the outcome of monotherapy in data set [1] is reported as “failed”. In the case of `O=c1c(O)c(-c2ccc(O)c(O)c2)oc2cc(O)cc(O)c12` [quercetin], the stability of quercetin result in data set [2] is reported as “stabilized”.
